{"source": "patent US8410284B2", "about": "“Cyclic benzimidazole derivatives useful as anti-diabetic agents” (Merck Sharp & Dohme Corp, priority 2008, dated 2013)", "target": "recombinant human AMPK complex 1 (containing α1β1γ1) (Homo sapiens, UniProt Q13131+Q9Y478)", "sequence (Q13131 whole entry)": "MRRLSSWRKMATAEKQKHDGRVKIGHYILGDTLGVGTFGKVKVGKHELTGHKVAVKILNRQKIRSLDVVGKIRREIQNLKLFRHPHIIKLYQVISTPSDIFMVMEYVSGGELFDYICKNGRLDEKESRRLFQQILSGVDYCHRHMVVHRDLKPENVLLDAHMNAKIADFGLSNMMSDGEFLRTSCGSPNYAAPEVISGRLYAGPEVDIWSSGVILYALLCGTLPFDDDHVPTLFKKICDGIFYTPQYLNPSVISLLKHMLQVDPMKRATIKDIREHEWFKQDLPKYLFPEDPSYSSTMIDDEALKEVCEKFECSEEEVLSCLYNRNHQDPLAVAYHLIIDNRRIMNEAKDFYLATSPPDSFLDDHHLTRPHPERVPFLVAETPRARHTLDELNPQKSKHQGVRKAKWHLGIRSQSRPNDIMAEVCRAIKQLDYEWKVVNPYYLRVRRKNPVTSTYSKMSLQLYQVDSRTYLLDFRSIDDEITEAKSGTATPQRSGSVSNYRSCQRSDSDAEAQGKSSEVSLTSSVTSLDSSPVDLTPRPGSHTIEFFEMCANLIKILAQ", "sequence (Q9Y478 whole entry)": "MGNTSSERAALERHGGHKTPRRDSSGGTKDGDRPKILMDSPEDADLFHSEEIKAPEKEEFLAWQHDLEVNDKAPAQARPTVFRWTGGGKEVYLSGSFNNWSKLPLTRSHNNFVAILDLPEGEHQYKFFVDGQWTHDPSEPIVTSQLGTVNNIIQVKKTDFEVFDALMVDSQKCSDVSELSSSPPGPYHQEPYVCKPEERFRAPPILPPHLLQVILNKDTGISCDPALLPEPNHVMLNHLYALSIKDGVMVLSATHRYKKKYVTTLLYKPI", "sequence (P54619 whole entry partner)": "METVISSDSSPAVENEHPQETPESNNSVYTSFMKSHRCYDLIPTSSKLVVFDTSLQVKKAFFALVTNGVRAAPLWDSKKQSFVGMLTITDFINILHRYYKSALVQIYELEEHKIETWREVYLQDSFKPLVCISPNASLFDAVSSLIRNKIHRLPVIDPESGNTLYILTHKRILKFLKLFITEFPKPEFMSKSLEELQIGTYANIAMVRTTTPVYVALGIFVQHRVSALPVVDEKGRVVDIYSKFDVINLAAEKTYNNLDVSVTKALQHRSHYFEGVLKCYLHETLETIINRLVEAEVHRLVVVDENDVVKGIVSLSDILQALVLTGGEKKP", "assay": "In vitro AMPK activation assay (AMPKSAMSF)", "format": "biochemical", "conditions": "recombinant human AMPK complex 1 (α1β1γ1); for Emax: read-out: maximum AMP activation; for % Maximum AMP Activation of human AMPK Complex 1: basal activity subtracted", "procedure": "AMPKSAMSF (In Vitro AMPK Activation Assay)\nThe recombinant human AMPK complex 1 (containing α1β1γ1) was obtained from baculovirus expression system. Recombinant viruses were generated by cotransfection of AMPK/pBacPak9 clones with Baculogold baculovirus DNA (Pharmingen) in spodoptera frugiperda 21 cells according to the manufacturer's instructions. Each round of virus amplification was performed for 5 days in Grace's medium containing 10% serum. Virus that had been subjected to three rounds of amplification was used for all protein production procedures. To express the AMPK complex, sf21 cells were adapted to serum free medium (SF900 II, Invitrogen) by sequential dilution from serum containing stocks into SF900 II medium and maintained in shaker flasks at 90 rpm at 27° C. The recombinant AMPK enzyme complex was produced by triple infection, one recombinant virus for each of the subunits, in sf21 cells under serum free conditions. Cells were infected in log phase, 1×10^6 cells/ml, at a multiplicity of infection of ˜5. Cells were harvested by centrifugation at 10,000×g for 15 minutes after 72 hours of infection with viruses. The insect cell pellet from 2 liters of culture was resuspended in 50 ml lysis buffer (20 mM Tris-HCl, 50 mM NaCl, 50 mM NaF, 30 mM Na PPi, 0.25 M sucrose, 10 mM ZnCl2, 2 mM DTT, 0.4 mg/ml digitonin) and subjected to two cycles of freeze-thaw lysis in a dry-ice ethanol bath. Insoluble material was removed by centrifugation at 10,000×g and the supernatant was fractionated with use of polyethylene glycol (PEG). The protein fraction precipitating between 2.5 and 6% PEG was used for further purification using a Blue-Sepharose step (Zhou et al, J. Clin. Invest. 108, 1167-1174, 2001).\nThe total in vitro AMPK activation assay volume is 50 μl in a 96-well plate. The reaction mixture contained 100 μM ATP (0.5 μCi ^33P-ATP per reaction), and 50 μM SAMS (HMRSAMSGLHLVKRR) in a buffer (20 mM HEPES, pH 7.0, 5 mM MgCl2, 0.01% Brij35). The reaction was initiated with addition of the enzyme. After 30-minute incubation at 30° C., the reaction was stopped by addition of 80 μl 1% H3PO4. Aliquots (100 μl) were transferred to 96-well MultiScreen plates (MAPHNOB50; Millipore Corp., Bedford, Mass., USA). The plate was washed three times with 1% H3PO4 followed by detection in a Top-count. The counts per minute from the basal activity (the reaction without activator) was subtracted from each well and the data were expressed as % maximum AMP activation followed by EC50 calculation."}
{"molecule": "Cc1ccc(Oc2nc3cc(-c4ccc5c(ccn5C)c4)c(Cl)cc3[nH]2)cc1P(=O)(O)O", "note": "[Example 9, 5-(5-chloro-6-(1-methyl-1H-indol-5-yl)-1H-benzo[d]imidazol-2-yloxy)-2-methylphenylphosphonic acid]", "values": [{"measurement": "Emax", "result": "> 80", "unit": "%"}]}
{"molecule": "O=[P@@]1(c2cccc(Oc3nc4cc(-c5ccc(-c6ccccc6)cc5)c(Cl)cc4[nH]3)c2)OCC[C@@H](c2ccncc2)O1", "note": "[Example 25, Trans-5-Biphenyl-4-yl-6-chloro-2-trans-[3-((S)-2-oxo-4-pyridin-4-yl-2lambda*5*-[1,3,2]dioxophosphinan-2-yl)-phenoxy]-1H-benzoimidazole]", "values": [{"measurement": "Emax", "result": "> 80", "unit": "%"}]}
{"molecule": "CCOC(=O)CNP(=O)(NCC(=O)OCC)c1cc(Oc2nc3cc(-c4ccc5c(ccn5C)c4)c(Cl)cc3[nH]2)ccc1C", "note": "[Example 27, {[6-Chloro-5-(1-methyl-1H-indol-5-yl)-1-H-benzimidazol-2-yl]oxo}-4-methylphen-3-ylphosphono-bis-2-amino-ethanoic acid ethyl ester]", "values": [{"measurement": "Emax", "result": "> 80", "unit": "%"}]}
{"molecule": "Cc1ccc(Oc2nc3cc(-c4ccc(N5CCOCC5)cc4)c(Cl)cc3[nH]2)cc1P(=O)(O)O", "note": "[Example 8, 5-(5-chloro-6-(4-morpholinophenyl)-1H-benzo[d]imidazol-2-yloxy)-2-methylphenylphosphonic acid]", "values": [{"measurement": "EC50", "result": 1.2, "unit": "nM"}, {"measurement": "% Maximum AMP Activation of human AMPK Complex 1", "result": 224, "unit": "%"}]}
{"molecule": "Cc1ccc(Oc2nc3cc(-c4ccc(C5CCCCC5)cc4)c(Cl)cc3[nH]2)cc1P(=O)(O)O", "note": "[Example 5, {5-[6-Chloro-5-(4-cyclohexyl-phenyl)-1H-benzoimidazol-2-yloxy]-2-methylphenyl}phosphonic acid]", "values": [{"measurement": "EC50", "result": 4.9, "unit": "nM"}, {"measurement": "% Maximum AMP Activation of human AMPK Complex 1", "result": 257, "unit": "%"}, {"measurement": "Emax", "result": "> 80", "unit": "%"}]}
{"molecule": "Cn1ccc2cc(-c3cc4nc(Oc5cccc(P(=O)(O)O)c5)[nH]c4cc3Cl)ccc21", "note": "[Example 16, (3-{[6-chloro-5-(1-methyl-1H-indol-5-yl)-1H-benzimidazol-2-yl]oxy}phenyl)phosphonic acid]", "values": [{"measurement": "EC50", "result": 0.6, "unit": "nM"}, {"measurement": "% Maximum AMP Activation of human AMPK Complex 1", "result": 173, "unit": "%"}, {"measurement": "Emax", "result": "> 80", "unit": "%"}]}
{"molecule": "O=P(O)(O)c1cncc(Oc2nc3cc(-c4ccc(-c5ccccc5)cc4)c(Cl)cc3[nH]2)c1", "note": "[Example 12, [5-(5-Biphenyl-4-yl-6-chloro-1H-benzoimidazol-2-yloxy)-pyridin-3-yl]-phoshponic acid]", "values": [{"measurement": "Emax", "result": "> 80", "unit": "%"}]}
{"molecule": "CCOP(C)(=O)c1cccc(Oc2nc3cc(-c4ccc(-c5ccccc5)cc4)c(Cl)cc3[nH]2)c1", "note": "(stereo not drawn) [Example 17, [3-(5 Biphenyl-4-yl-6-chloro-1H-benzoimidazol-2-yloxy)-phenyl]-methyl-phosphinic acid ethyl ester]", "values": [{"measurement": "Emax", "result": "> 80", "unit": "%"}]}
{"molecule": "O=P1(c2cccc(Oc3nc4cc(-c5ccc(-c6ccccc6)cc5)c(Cl)cc4[nH]3)c2)OCCC(c2cccc(Cl)c2)O1", "note": "(stereo not drawn) [Example 24, Cis-5-Biphenyl-4-yl-6-chloro-2-[3-4-(3-chloro-phenyl)-2-oxo-2-lambda*5*-[1,3,2]dioxaphosphinan-2-ylphenoxy]-1H-benzoimidazole]", "values": [{"measurement": "Emax", "result": "> 80", "unit": "%"}]}
{"molecule": "CCOC(=O)CNP(=O)(NCC(=O)OCC)c1cc(Oc2nc3cc(-c4ccc(C5CCCCC5)cc4)c(Cl)cc3[nH]2)ccc1C", "note": "[Example 28, {[6-Chloro-5-(4-cyclohexylphenyl)-1H-benzoimidazol-2-yl]oxo}-4-methylphen-3-ylphosphono-bis-2-amino-ethanoic acid ethyl ester]", "values": [{"measurement": "Emax", "result": "> 80", "unit": "%"}]}
{"molecule": "COc1ccc(C#Cc2cc3nc(Oc4ccc(C)c(P(=O)(O)O)c4)[nH]c3cc2Cl)cc1", "note": "[Example 10, 5-(5-chloro-6-(2-(4-methoxyphenyl)ethynyl)-1H-benzo[d]imidazol-2-yloxy)-2-methylphenylphosphonic acid]", "values": [{"measurement": "Emax", "result": "> 80", "unit": "%"}]}
{"molecule": "Cc1ccc(Oc2nc3cc(-c4ccc(N5CCOCC5)cc4)c(Cl)cc3[nH]2)cc1P(=O)(O)O", "note": "[Example 4, {5-[6-Chloro-5-(4-morpholin-4-yl-phenyl)-1H-benzoimidazol-2-yloxy]-2-methylphenyl}-phosphonic acid]", "values": [{"measurement": "Emax", "result": "> 80", "unit": "%"}]}
{"molecule": "O=P(O)(O)c1cccc(C(F)(F)c2nc3cc(-c4ccc(-c5ccccc5)cc4)c(Cl)cc3[nH]2)c1", "note": "[Example 15, {3-[(5-biphenyl-4-yl-6-chloro-1H-benzimidazol-2-yl)(difluoro)methyl]phenyl}phosphonic acid]", "values": [{"measurement": "Emax", "result": "> 80", "unit": "%"}]}
{"molecule": "O=P1(c2cccc(Oc3nc4cc(-c5ccc(-c6ccccc6)cc5)c(Cl)cc4[nH]3)c2)OCCC(c2ccncc2)O1", "note": "[Example 26, Cis-5-Biphenyl-4-yl-6-chloro-2-[3-((S)-2-oxo-4-pyridin-4-yl-2lambda*5*-[1,3,2]dioxophosphinan-2-yl)-phenoxy]-1H-benzoimidazole]", "values": [{"measurement": "Emax", "result": "> 80", "unit": "%"}]}
{"molecule": "Cc1ccc(Oc2nc3cc(-c4ccc(-c5ccccc5)cc4)c(Cl)cc3[nH]2)cc1[P@@]1(=O)OCC[C@H](c2cccc(Cl)c2)O1", "note": "(relative stereo) [Example 19, Trans-5-Biphenyl-4-yl-6-chloro-2-[3-[4-(3-chloro-phenyl)-2-oxo-2-lambda*5*-[1,3,2]dioxaphosphinan-2-yl]-4-methyl-phenoxy]-1H-benzoimidazole]", "values": [{"measurement": "Emax", "result": "> 80", "unit": "%"}]}
{"molecule": "O=P(O)(O)c1cccc(Oc2nc3cc(-c4ccc(-c5ccccc5)cc4)c(F)cc3[nH]2)c1", "note": "[Example 13, {3-[(5-biphenyl-4-yl-6-fluoro-1H-benzimidazol-2-yl)oxy]phenyl}phosphonic acid]", "values": [{"measurement": "Emax", "result": "> 80", "unit": "%"}]}
{"molecule": "O=C(c1cccc(P(=O)(O)O)c1)c1nc2cc(-c3ccc(-c4ccccc4)cc3)c(Cl)cc2[nH]1", "note": "[Example 14, {3-[(5-biphenyl-4-yl-6-chloro-1H-benzimidazol-2-yl)carbonyl]phenyl}phosphonic acid]", "values": [{"measurement": "Emax", "result": "> 80", "unit": "%"}]}
{"molecule": "Cc1ccc(Oc2nc3cc(-c4ccc(-c5ccccc5)cc4)c(Cl)cc3[nH]2)cc1P(=O)(O)O", "note": "[Example 1, ((5-(4-Biphenyl)-6-chloro-1H-benzimidazol-2-yl)oxo)-4-methylphen-3-ylphosphonic acid]", "values": [{"measurement": "EC50", "result": 0.9, "unit": "nM"}, {"measurement": "% Maximum AMP Activation of human AMPK Complex 1", "result": 175, "unit": "%"}, {"measurement": "Emax", "result": "> 80", "unit": "%"}]}
{"molecule": "O=P(O)(O)c1cccc(Oc2nc3cc(-c4ccc(N5CCOCC5)cc4)c(Cl)cc3[nH]2)c1", "note": "[Example 7, {3-[6-Chloro-5-(4-morpholin-4-yl-phenyl)-1H-benzoimidazol-2-yloxy]phenyl}phosphonic acid]", "values": [{"measurement": "Emax", "result": "> 80", "unit": "%"}]}
{"molecule": "CP(=O)(O)c1cccc(Oc2nc3cc(-c4ccc(-c5ccccc5)cc4)c(Cl)cc3[nH]2)c1", "note": "[Example 18, [3-(5-Biphenyl-4-yl-6-chloro-1H-benzoimidazol-2-yloxy)-phenyl]-methyl-phosphinic acid]", "values": [{"measurement": "Emax", "result": "> 80", "unit": "%"}]}
{"molecule": "Cc1ccc(Oc2nc3cc(-c4ccc(-c5ccccc5)cc4)c(Cl)cc3[nH]2)cc1[P@@]1(=O)OCC[C@H](c2ccncc2)O1", "note": "(relative stereo) [Example 21, Trans-5-Biphenyl-4-yl-6-chloro-2-[4-methyl-3-(2-oxo-4-pyridin-4-yl-2lambda*5*-[1,3,2]dioxophosphinan-2-yl)-phenoxy]-1H-benzoimidazole]", "values": [{"measurement": "Emax", "result": "> 80", "unit": "%"}]}
{"molecule": "O=[P@@]1(c2cccc(Oc3nc4cc(-c5ccc(-c6ccccc6)cc5)c(Cl)cc4[nH]3)c2)OCC[C@@H](c2cccc(Cl)c2)O1", "note": "(relative stereo) [Example 23, Trans-5-Biphenyl-4-yl-6-chloro-2-[3-4-(3-chloro-phenyl)-2-oxo-2-lambda*5*-[1,3,2]dioxaphosphinan-2-ylphenoxy]-1H-benzoimidazole]", "values": [{"measurement": "Emax", "result": "> 80", "unit": "%"}]}
{"molecule": "Cc1ccc(Oc2nc3cc(-c4ccc(-c5ccccc5)cc4)c(Cl)cc3[nH]2)cc1[P@@]1(=O)OCC[C@@H](c2ccncc2)O1", "note": "(relative stereo) [Example 22, Cis-5-Biphenyl-4-yl-6-chloro-2-[4-methyl-3-(2-oxo-4-pyridin-4-yl-2lambda*5*-[1,3,2]dioxophosphinan-2-yl)-phenoxy]-1H-benzoimidazole]", "values": [{"measurement": "Emax", "result": "> 80", "unit": "%"}]}
{"molecule": "Cc1ccc(Oc2nc3cc(-c4ccc(N5CCCC5)cc4)c(Cl)cc3[nH]2)cc1P(=O)(O)O", "note": "[Example 6, {5-[6-Chloro-5-(4-pyrrolidin-1-yl-phenyl)-1H-benzoimidazol-2-yloxy]-2-methyl-phenyl}phosphonic acid]", "values": [{"measurement": "EC50", "result": 1.1, "unit": "nM"}, {"measurement": "% Maximum AMP Activation of human AMPK Complex 1", "result": 223, "unit": "%"}, {"measurement": "Emax", "result": "> 80", "unit": "%"}]}
{"molecule": "Cc1ccc(Oc2nc3cc(C#Cc4ccccc4)c(Cl)cc3[nH]2)cc1P(=O)(O)O", "note": "[Example 3, ((6-Chloro-5-phenylethynyl-1H-benzimidazol-2-yl)oxo)-4-methylphen-3-ylphosphonic acid]", "values": [{"measurement": "EC50", "result": 0.7, "unit": "nM"}, {"measurement": "% Maximum AMP Activation of human AMPK Complex 1", "result": 192, "unit": "%"}, {"measurement": "Emax", "result": "> 80", "unit": "%"}]}
